Source: publication doi:10.1101/2024.08.19.608619, “Discovery of potent SARS-CoV-2 nsp3 macrodomain inhibitors uncovers lack of translation to cellular antiviral response” (bioRxiv, 2024)
Where two headings read alike, the source gives them in different places.

What was measured:
Test in all cases: biochemical
Set-up in all cases: In vitro kinase panel profiling, per cent remaining kinase activity at 10 uM
p70S6K(h) = target: T1, p70S6K(h) (Homo sapiens, UniProt P23443); settings: atp_concentration=15, read-out: % of control remaining
T1 construct: gene RPS6KB1
Excerpt: (§1) We derisk potential for off-target activity by profiling the compound in a CEREP panel, a standard secondary pharmacology assessment, as well as a kinase panel to derisk a potential hinge-binding motif in our leads, and a PARP panel to derisk activity against human […]. Reassuringly, the compounds are selective, with the only off-targets being moderate human CHRM2 and KOR receptors activity associated with ASAP-0011198.

KDR(h) = KDR(h) (Homo sapiens, UniProt P35968); settings: atp_concentration=90, read-out: % of control remaining
Excerpt: as §1

eEF-2K(h) = target: T2, eEF-2K(h) (Homo sapiens, UniProt O00418); settings: atp_concentration=15, read-out: % of control remaining
T2 construct: gene EEF2K
T2 sequence (O00418 1-725): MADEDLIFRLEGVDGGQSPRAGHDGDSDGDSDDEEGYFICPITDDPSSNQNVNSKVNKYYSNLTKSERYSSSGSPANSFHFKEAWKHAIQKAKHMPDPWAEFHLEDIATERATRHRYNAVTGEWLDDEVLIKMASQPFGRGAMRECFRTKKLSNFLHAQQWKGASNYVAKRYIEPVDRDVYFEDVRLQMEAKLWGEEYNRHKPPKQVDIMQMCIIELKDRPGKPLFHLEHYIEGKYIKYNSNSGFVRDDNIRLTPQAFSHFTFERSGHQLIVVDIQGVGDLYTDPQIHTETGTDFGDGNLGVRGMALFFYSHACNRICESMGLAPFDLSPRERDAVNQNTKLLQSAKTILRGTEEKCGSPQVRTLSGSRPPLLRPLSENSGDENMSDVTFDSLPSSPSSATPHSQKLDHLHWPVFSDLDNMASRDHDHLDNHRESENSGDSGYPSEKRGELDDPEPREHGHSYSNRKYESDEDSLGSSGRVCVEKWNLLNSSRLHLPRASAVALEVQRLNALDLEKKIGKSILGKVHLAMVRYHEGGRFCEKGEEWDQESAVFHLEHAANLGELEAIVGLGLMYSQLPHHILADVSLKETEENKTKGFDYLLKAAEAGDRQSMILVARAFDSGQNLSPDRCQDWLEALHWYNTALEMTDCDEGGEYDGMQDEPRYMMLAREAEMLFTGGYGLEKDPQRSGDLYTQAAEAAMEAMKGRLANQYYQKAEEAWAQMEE
Excerpt: as §1

ALK(h) = ALK(h) (Homo sapiens, UniProt Q9UM73); settings: atp_concentration=200, read-out: % of control remaining
Excerpt: as §1

Aurora-A(h) = target: T3, Aurora-A(h) (Homo sapiens, UniProt O14965); settings: atp_concentration=15, read-out: % of control remaining
T3 construct: gene AURKA
T3 sequence (O14965 1-403): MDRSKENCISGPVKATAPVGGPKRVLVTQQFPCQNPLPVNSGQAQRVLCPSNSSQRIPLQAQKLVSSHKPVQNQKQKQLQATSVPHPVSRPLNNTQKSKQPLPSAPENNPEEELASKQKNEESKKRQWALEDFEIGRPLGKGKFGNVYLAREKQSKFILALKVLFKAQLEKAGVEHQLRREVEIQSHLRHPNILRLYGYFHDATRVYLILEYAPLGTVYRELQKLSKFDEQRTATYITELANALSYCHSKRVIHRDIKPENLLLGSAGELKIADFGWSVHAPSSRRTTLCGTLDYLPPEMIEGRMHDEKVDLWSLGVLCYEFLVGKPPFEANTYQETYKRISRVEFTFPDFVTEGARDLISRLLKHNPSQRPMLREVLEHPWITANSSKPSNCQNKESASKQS
Excerpt: as §1

LOK(h) = target: T4, LOK(h) (Homo sapiens, UniProt O94804); settings: atp_concentration=120, read-out: % of control remaining
T4 construct: gene STK10
Excerpt: as §1

PRAK(h) = target: T5, PRAK(h) (Homo sapiens, UniProt Q8IW41); settings: atp_concentration=15, read-out: % of control remaining
T5 construct: gene MAPKAPK5
T5 sequence (Q8IW41 1-473): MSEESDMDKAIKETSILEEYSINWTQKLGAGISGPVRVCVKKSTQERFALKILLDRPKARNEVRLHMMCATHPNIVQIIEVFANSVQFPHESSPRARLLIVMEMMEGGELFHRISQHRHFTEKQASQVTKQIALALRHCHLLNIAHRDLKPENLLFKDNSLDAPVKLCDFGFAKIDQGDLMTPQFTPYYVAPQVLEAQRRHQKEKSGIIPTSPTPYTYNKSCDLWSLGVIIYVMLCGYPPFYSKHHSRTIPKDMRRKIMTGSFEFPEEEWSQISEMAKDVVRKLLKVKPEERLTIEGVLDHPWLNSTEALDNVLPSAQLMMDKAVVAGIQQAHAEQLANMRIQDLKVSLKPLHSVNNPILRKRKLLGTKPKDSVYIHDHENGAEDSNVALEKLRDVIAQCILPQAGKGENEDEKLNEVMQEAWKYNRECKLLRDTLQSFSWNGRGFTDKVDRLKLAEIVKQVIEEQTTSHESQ
Excerpt: as §1

MLK1(h) = target: T6, MLK1(h) (Homo sapiens, UniProt P80192); settings: atp_concentration=45, read-out: % of control remaining
T6 construct: gene MAP3K9
Excerpt: as §1

CDK9/cyclin T1(h) = CDK9/cyclin T1(h) (Homo sapiens, UniProt P50750); settings: atp_concentration=45, read-out: % of control remaining
Excerpt: as §1

Abl(h) = target: T7, Abl(h) (Homo sapiens, UniProt P00519); settings: atp_concentration=45, read-out: % of control remaining
T7 construct: gene ABL1
Excerpt: as §1

MSK2(h) = target: T8, MSK2(h) (Homo sapiens, UniProt O75676); settings: atp_concentration=45, read-out: % of control remaining
T8 construct: gene RPS6KA4
Excerpt: as §1

T7 sequence (P00519 whole entry): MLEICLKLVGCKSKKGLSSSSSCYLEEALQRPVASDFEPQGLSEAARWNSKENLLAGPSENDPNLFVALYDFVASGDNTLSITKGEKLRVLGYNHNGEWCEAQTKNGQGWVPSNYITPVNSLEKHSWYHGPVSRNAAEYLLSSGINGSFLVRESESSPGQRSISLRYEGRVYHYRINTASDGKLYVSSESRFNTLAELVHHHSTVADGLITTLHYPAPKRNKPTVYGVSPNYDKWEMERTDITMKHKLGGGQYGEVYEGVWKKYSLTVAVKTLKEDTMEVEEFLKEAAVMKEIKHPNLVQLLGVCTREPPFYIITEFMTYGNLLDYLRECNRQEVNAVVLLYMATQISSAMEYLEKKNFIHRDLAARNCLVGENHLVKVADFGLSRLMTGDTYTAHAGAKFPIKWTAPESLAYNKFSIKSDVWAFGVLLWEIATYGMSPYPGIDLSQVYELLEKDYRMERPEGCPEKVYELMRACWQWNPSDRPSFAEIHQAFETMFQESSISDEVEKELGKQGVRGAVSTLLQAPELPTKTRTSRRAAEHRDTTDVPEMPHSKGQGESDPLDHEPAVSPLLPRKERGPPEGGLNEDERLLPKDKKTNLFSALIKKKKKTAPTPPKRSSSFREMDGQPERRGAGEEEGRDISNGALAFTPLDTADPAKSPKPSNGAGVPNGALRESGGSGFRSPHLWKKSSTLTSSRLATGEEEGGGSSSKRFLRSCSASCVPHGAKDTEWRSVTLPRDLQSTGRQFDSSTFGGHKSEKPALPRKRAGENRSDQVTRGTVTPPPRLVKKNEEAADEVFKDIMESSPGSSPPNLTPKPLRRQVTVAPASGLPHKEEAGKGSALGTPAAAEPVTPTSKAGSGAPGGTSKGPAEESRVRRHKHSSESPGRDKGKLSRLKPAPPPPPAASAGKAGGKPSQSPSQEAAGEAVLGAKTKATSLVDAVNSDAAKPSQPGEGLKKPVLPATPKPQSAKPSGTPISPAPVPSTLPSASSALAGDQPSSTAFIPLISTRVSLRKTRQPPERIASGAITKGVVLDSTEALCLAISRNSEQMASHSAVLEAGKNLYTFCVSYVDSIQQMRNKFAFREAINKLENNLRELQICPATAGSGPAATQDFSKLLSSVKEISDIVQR
Sequence of CDK9/cyclin T1(h) (P50750 whole entry): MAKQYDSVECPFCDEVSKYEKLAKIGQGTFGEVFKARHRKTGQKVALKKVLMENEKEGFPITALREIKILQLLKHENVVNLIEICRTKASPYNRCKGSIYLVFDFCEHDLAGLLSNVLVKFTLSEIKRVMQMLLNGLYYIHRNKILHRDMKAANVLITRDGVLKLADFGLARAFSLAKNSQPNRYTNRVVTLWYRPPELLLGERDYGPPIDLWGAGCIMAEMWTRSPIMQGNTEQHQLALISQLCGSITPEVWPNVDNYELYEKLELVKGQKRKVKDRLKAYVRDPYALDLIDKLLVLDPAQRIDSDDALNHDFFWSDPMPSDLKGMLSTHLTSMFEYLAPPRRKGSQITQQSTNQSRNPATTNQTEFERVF
Sequence of CDK9/cyclin T1(h) (O60563 whole entry partner): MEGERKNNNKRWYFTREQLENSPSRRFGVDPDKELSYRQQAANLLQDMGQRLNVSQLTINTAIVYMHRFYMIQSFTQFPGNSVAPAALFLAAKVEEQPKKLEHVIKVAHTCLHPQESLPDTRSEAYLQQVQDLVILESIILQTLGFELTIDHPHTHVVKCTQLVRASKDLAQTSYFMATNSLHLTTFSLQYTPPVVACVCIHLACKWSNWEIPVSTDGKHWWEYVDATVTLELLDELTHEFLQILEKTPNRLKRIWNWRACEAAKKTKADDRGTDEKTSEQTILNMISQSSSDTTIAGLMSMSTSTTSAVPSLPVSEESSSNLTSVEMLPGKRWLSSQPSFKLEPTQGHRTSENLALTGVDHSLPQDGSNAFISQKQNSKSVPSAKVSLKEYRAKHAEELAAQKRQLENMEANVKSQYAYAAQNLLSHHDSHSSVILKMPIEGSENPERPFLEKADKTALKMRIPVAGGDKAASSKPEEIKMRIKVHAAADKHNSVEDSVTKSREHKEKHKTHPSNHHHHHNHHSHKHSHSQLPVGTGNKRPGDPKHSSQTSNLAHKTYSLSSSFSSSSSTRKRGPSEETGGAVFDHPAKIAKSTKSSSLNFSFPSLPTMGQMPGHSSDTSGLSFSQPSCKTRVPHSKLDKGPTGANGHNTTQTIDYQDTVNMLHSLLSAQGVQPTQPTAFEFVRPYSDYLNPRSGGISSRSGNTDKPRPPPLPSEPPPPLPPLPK
T1 sequence (P23443 whole entry): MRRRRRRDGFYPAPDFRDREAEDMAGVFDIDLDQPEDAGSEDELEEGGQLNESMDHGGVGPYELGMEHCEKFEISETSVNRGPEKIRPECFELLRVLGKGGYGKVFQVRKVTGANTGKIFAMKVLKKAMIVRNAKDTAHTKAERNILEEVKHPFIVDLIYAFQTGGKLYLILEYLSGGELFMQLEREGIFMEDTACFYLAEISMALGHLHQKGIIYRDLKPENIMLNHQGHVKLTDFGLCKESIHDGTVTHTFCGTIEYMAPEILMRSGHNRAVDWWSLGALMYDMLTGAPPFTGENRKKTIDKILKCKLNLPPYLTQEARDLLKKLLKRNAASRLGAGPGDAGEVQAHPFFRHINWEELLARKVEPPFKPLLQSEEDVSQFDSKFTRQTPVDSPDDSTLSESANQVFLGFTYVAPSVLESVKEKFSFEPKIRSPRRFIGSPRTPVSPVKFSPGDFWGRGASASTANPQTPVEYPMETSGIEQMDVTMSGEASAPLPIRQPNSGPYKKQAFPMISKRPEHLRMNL
Sequence of ALK(h) (Q9UM73 whole entry): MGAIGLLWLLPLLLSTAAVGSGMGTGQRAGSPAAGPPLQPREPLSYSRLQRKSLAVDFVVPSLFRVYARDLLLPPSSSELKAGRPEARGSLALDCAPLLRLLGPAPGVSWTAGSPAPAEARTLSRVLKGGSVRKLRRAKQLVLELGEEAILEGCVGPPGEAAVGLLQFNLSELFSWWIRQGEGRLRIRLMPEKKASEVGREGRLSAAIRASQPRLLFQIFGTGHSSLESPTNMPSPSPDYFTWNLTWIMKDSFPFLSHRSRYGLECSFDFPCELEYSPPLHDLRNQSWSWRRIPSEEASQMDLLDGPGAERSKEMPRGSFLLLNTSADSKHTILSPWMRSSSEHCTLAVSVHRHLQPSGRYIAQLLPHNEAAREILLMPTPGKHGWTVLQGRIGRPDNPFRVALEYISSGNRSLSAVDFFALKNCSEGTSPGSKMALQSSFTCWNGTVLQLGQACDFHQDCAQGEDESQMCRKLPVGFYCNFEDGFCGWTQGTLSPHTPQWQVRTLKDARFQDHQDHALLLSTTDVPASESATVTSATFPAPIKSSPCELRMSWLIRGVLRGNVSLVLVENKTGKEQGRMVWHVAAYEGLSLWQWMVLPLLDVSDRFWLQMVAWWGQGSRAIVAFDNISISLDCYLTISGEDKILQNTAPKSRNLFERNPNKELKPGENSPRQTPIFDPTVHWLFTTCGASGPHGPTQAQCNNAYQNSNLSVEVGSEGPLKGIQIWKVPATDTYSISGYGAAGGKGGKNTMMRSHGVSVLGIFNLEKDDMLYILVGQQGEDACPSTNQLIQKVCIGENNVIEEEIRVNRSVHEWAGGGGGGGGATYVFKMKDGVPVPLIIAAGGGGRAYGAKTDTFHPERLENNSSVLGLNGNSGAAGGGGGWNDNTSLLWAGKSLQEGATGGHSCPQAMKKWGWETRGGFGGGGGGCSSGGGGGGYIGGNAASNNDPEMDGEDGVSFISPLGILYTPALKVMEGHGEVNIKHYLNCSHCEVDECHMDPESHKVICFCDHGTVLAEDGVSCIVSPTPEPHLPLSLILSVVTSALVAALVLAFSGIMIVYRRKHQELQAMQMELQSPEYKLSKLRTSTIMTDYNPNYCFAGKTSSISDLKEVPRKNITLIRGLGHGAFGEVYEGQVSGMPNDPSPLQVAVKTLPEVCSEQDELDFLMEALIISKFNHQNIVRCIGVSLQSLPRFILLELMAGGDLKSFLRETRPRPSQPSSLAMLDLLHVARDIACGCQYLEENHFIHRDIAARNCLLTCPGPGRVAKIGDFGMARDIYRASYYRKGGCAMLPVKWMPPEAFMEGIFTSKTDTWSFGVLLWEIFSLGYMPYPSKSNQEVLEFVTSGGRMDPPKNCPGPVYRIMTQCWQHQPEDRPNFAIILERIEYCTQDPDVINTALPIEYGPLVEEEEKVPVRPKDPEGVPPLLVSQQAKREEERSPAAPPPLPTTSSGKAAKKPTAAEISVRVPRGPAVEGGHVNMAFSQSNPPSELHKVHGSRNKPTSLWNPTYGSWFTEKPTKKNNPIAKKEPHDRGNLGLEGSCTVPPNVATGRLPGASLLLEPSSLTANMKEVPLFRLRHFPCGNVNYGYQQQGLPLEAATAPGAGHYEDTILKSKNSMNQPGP

CC(C)C(Nc1ncnc2[nH]c(C(=O)NC3CCN(C)C3)cc12)c1ccc2c(c1)S(=O)(=O)CCC2 (stereo not shown) [ASAP-0011198]
remaining activity at 10 µM (p70S6K(h); batch_name=ASAP-0011198-002): 104%
remaining activity at 10 µM (KDR(h); batch_name=ASAP-0011198-002): 96%
remaining activity at 10 µM (eEF-2K(h); batch_name=ASAP-0011198-002): 89%
remaining activity at 10 µM (ALK(h); batch_name=ASAP-0011198-002): 106%
remaining activity at 10 µM (Aurora-A(h); batch_name=ASAP-0011198-002): 97%
remaining activity at 10 µM (LOK(h); batch_name=ASAP-0011198-002): 99%
remaining activity at 10 µM (PRAK(h); batch_name=ASAP-0011198-002): 111%
remaining activity at 10 µM (MLK1(h); batch_name=ASAP-0011198-002): 96%
remaining activity at 10 µM (CDK9/cyclin T1(h); batch_name=ASAP-0011198-002): 108%
remaining activity at 10 µM (Abl(h); batch_name=ASAP-0011198-002): 100%
remaining activity at 10 µM (MSK2(h); batch_name=ASAP-0011198-002): 93%

Cn1ncc(-c2cc3c(N[C@@H](c4ccc5c(n4)OCCO5)C(C)(C)C)ncnc3[nH]2)c1C#N [ASAP-0011221]
remaining activity at 10 µM (p70S6K(h); batch_name=ASAP-0011221-002): 108%
remaining activity at 10 µM (KDR(h); batch_name=ASAP-0011221-002): 83%
remaining activity at 10 µM (eEF-2K(h); batch_name=ASAP-0011221-002): 124%
remaining activity at 10 µM (ALK(h); batch_name=ASAP-0011221-002): 117%
remaining activity at 10 µM (Aurora-A(h); batch_name=ASAP-0011221-002): 95%
remaining activity at 10 µM (LOK(h); batch_name=ASAP-0011221-002): 122%
remaining activity at 10 µM (PRAK(h); batch_name=ASAP-0011221-002): 86%
remaining activity at 10 µM (MLK1(h); batch_name=ASAP-0011221-002): 94%
remaining activity at 10 µM (CDK9/cyclin T1(h); batch_name=ASAP-0011221-002): 130%
remaining activity at 10 µM (Abl(h); batch_name=ASAP-0011221-002): 81%
remaining activity at 10 µM (MSK2(h); batch_name=ASAP-0011221-002): 122%

Cc1nn(C)cc1-c1cc2c(NC(c3ccc4c(c3)S(=O)(=O)CCC4)C(C)C)ncnc2[nH]1 (stereo not shown) [ASAP-0011446]
remaining activity at 10 µM (p70S6K(h); batch_name=ASAP-0011446-002): 108%
remaining activity at 10 µM (KDR(h); batch_name=ASAP-0011446-002): 88%
remaining activity at 10 µM (eEF-2K(h); batch_name=ASAP-0011446-002): 98%
remaining activity at 10 µM (ALK(h); batch_name=ASAP-0011446-002): 99%
remaining activity at 10 µM (Aurora-A(h); batch_name=ASAP-0011446-002): 55%
remaining activity at 10 µM (LOK(h); batch_name=ASAP-0011446-002): 93%
remaining activity at 10 µM (PRAK(h); batch_name=ASAP-0011446-002): 82%
remaining activity at 10 µM (MLK1(h); batch_name=ASAP-0011446-002): 79%
remaining activity at 10 µM (CDK9/cyclin T1(h); batch_name=ASAP-0011446-002): 57%
remaining activity at 10 µM (Abl(h); batch_name=ASAP-0011446-002): 76%
remaining activity at 10 µM (MSK2(h); batch_name=ASAP-0011446-002): 105%

C[C@H](C(=O)O)[C@@H](NC(=O)c1ncnc2[nH]ccc12)c1ccc(Br)cc1 [ASAP-0014722]
remaining activity at 10 µM (p70S6K(h); batch_name=ASAP-0014722-002): 97%
remaining activity at 10 µM (KDR(h); batch_name=ASAP-0014722-002): 77%
remaining activity at 10 µM (eEF-2K(h); batch_name=ASAP-0014722-002): 85%
remaining activity at 10 µM (ALK(h); batch_name=ASAP-0014722-002): 99%
remaining activity at 10 µM (Aurora-A(h); batch_name=ASAP-0014722-002): 72%
remaining activity at 10 µM (LOK(h); batch_name=ASAP-0014722-002): 97%
remaining activity at 10 µM (PRAK(h); batch_name=ASAP-0014722-002): 88%
remaining activity at 10 µM (MLK1(h); batch_name=ASAP-0014722-002): 86%
remaining activity at 10 µM (CDK9/cyclin T1(h); batch_name=ASAP-0014722-002): 103%
remaining activity at 10 µM (Abl(h); batch_name=ASAP-0014722-002): 97%
remaining activity at 10 µM (MSK2(h); batch_name=ASAP-0014722-002): 90%

COc1ccc([C@H](Cc2nnn[nH]2)NC(=O)c2ncnc3[nH]ccc23)cc1 [ASAP-0015381]
remaining activity at 10 µM (p70S6K(h); batch_name=ASAP-0015381-001): 113%
remaining activity at 10 µM (KDR(h); batch_name=ASAP-0015381-001): 97%
remaining activity at 10 µM (eEF-2K(h); batch_name=ASAP-0015381-001): 96%
remaining activity at 10 µM (ALK(h); batch_name=ASAP-0015381-001): 106%
remaining activity at 10 µM (Aurora-A(h); batch_name=ASAP-0015381-001): 84%
remaining activity at 10 µM (LOK(h); batch_name=ASAP-0015381-001): 102%
remaining activity at 10 µM (PRAK(h); batch_name=ASAP-0015381-001): 109%
remaining activity at 10 µM (MLK1(h); batch_name=ASAP-0015381-001): 87%
remaining activity at 10 µM (CDK9/cyclin T1(h); batch_name=ASAP-0015381-001): 109%
remaining activity at 10 µM (Abl(h); batch_name=ASAP-0015381-001): 102%
remaining activity at 10 µM (MSK2(h); batch_name=ASAP-0015381-001): 103%
